# Patent publication US9624229B2, “Pyrimidine-2-amine compounds and their use as inhibitors of JAK kinases” (Rigel Pharmaceuticals, Inc., priority 2008, dated 2017)
# Like-named read-outs stand apart in the source and are kept apart here.
# Biological target: Ba/F3 V617F cells (Homo sapiens, UniProt O60674, V617F, cells depend on it)
# Assay: Proliferation assay (Cell Titer-Glo, 72 h) utilizing Ba/F3 V617F cells
# Assay type: cell-based, mouse
# Experimental: Ba/F3 V617F cells are maintained and plated in RPMI with 10% FBS. Plating density for these cells is 1×10^5 cells/mL.
# The cells were resuspended in a corresponding medium at a required cell density (see above). 100μ of cell suspension was added to each well of a flat bottom 96 well white plate. The compound was serially diluted in DMSO from 5 mM in 3-fold dilutions, and then diluted 1:250 in the RPMI 1640 medium containing 5% FBS and pen/strep. 100 μL of resulting 2× compound solution was added per well in duplicate and the cells were allowed to proliferate for 72 hours at 37° C.
# Proliferation was measured using Cell Titer-Glo. The substrate was thawed and allowed to come to ambient temperature. After removal of top 100 μL of medium from each well, 100 μL of the premixed Cell Titer-Glo reagent was added to each well. The plates were mixed on an orbital shaker for three minutes to induce lysis and incubated at ambient temperature for an additional five minutes to allow the signal to equilibrate. The Luminescence was read on the Wallac Plate Reader.
# The results of the ability of the compounds of the invention to inhibit JAK2 activity, when tested in the above assay utilizing Ba/F3 V617F cells, are shown in the following Tables 2-3 wherein the level of activity (i.e., the IC50) for each compound is indicated in Tables 2-3. The compound numbers in Tables 2-3 refers to the compounds disclosed herein as being prepared by the methods disclosed herein: […]
# [1] = Ba/F3 V617F cells, proliferation, level of activity given as class symbol, read-out: IC50 (the source's name)
# [2] = Ba/F3 V617F cells, proliferation, level of activity to inhibit JAK2, read-out: IC50 (the source's name)
# Chain of Ba/F3 V617F cells (O60674 whole entry V617F): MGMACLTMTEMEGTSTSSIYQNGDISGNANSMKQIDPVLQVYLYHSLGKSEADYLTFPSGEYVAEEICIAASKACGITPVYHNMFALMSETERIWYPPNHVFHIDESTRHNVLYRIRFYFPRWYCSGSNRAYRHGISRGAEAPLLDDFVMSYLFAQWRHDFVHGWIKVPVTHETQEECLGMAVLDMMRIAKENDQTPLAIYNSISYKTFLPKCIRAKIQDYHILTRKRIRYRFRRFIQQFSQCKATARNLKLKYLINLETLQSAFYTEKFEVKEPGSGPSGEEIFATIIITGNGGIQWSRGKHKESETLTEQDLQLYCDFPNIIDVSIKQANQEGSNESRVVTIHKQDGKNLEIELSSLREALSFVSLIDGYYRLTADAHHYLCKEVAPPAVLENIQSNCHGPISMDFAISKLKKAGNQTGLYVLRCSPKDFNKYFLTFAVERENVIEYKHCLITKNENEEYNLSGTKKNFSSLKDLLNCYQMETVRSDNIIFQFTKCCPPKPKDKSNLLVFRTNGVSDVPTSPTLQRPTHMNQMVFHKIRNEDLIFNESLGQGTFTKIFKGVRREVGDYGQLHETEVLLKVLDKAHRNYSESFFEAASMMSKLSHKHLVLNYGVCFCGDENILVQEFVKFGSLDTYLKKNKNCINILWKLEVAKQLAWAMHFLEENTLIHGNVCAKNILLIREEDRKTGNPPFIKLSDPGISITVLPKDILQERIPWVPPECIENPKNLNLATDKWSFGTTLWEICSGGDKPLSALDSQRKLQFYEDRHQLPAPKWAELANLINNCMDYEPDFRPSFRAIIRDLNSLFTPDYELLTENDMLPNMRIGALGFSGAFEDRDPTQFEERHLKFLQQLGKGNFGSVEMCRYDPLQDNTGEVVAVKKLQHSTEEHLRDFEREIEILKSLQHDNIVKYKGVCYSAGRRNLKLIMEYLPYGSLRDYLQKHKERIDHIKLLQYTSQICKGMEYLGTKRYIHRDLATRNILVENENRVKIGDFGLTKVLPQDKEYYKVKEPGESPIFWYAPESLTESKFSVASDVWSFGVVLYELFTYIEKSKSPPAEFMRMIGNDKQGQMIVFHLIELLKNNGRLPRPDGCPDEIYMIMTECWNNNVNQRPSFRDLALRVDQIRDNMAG
GI50 [1] [nM],GI50 [2] [nM],Compound,other results
< 1000,–,"CS(=O)(=O)N1C[C@@H]2C[C@H]1CN2c1ccc(Nc2nccc(-c3ccc(N4CCOCC4)nc3)n2)cc1Cl [compound 257, 4-(6-(morpholin-4-yl)pyridin-3-yl)-N-(3-chloro-4-((1S,4S)-5-(methylsulfonyl)-2,5-diazabicyclo[2.2.1]heptan-2-yl)phenyl)pyrimidin-2-amine]",–
< 1000,–,"CN1C[C@@H]2C[C@H]1CN2c1ccc(Nc2nccc(-c3ccc4c(c3)CCCC(=O)N4)n2)cc1C#N [compound 272, 4-(2-oxo-2,3,4,5-tetrahydro-1H-benzo[b]azepin-7-yl)-N-(3-cyano-4-((1S,4S)-5-methyl-2,5-diazabicyclo[2.2.1]heptan-2-yl)phenyl)pyrimidin-2-amine]",–
–,< 1000,"Cc1cc(Nc2nccc(-c3ccc4nccn4c3)n2)ccc1N1C[C@@H]2C[C@H]1CN2C [compound 103, 4-(imidazo[1,2-a]pyridin-6-yl)-N-(3-methyl-4-((1S,4S)-5-methyl-2,5-diazabicyclo[2.2.1]heptan-2-yl)phenyl)pyrimidin-2-amine]",–
< 1000,–,"CN1C[C@@H]2C[C@H]1CN2c1ccc(Nc2nccc(-c3cnc4c(c3)OC(C)(C)C(=O)N4)n2)cc1Cl [compound 248, 4-(2,2-dimethyl-3-oxo-3,4-dihydro-2H-pyrido[3,2-b][1,4]oxazin-7-yl)-N-(3-chloro-4-((1S,4S)-5-methyl-2,5-diazabicyclo[2.2.1]heptan-2-yl)phenyl)pyrimidin-2-amine]",–
–,1000 to 10000,"CN(C)c1nc(-c2ccnc(Nc3ccc(N4C[C@@H]5C[C@H]4CN5C)c(F)c3)n2)cs1 [compound 176, 4-(2-(dimethylamino)thiazol-4-yl)-N-(3-fluoro-4-((1S,4S)-5-methyl-2,5-diazabicyclo[2.2.1]heptan-2-yl)phenyl)pyrimidin-2-amine]",–
–,< 1000,"CN1CC2(C)CN(c3ccc(Nc4nccc(-c5ccc(N(C)C)nc5)n4)cc3F)CC(C)(C1)C2 [compound 83, 4-(6-(dimethylamino)pyridin-3-yl)-N-(3-fluoro-4-(1,5,7-trimethyl-3,7-diazabicyclo[3.3.1]nonan-3-yl)phenyl)pyrimidin-2-amine]",–
–,< 1000,"CN(C)c1ccc(-c2ccnc(Nc3ccc(N4C[C@@H]5C[C@H]4CN5C)c(F)c3)n2)cn1 [compound 7, 4-(6-(N,N-dimethylamino)pyridin-3-yl)-N-(3-fluoro-4-((1S,4S)-5-methyl-2,5-diazabicyclo[2.2.1]heptan-2-yl)phenyl)pyrimidin-2-amine]",–
< 1000,–,"Cc1cc(Nc2nccc(-c3ccc(N4CCCCC4)nc3)n2)ccc1N1C[C@@H]2C[C@H]1CN2C [compound 190, 4-(6-(piperidin-1-yl)pyridin-3-yl)-N-(3-methyl-4-((1S,4S)-5-methyl-2,5-diazabicyclo[2.2.1]heptan-2-yl)phenyl)pyrimidin-2-amine]",–
< 1000,–,"Cc1cc(Nc2nccc(-c3ccc(N4CCCOCC4)nc3)n2)ccc1N1C[C@@H]2C[C@H]1CO2 [compound 204, 4-(6-(1,4-oxazepan-4-yl)pyridin-3-yl)-N-(3-methyl-4-((1S,4S)-5-oxa-2-azabicyclo[2.2.1]heptan-2-yl)phenyl)pyrimidin-2-amine]",–
–,1000 to 10000,"CN1C[C@@H]2C[C@H]1CN2c1ccc(Nc2nccc(-c3cnc(N4CCOCC4)nc3)n2)cc1 [compound 40, 4-(2-(morpholin-4-yl)pyrimidin-5-yl)-N-(4-((1S,4S)-5-methyl-2,5-diazabicyclo[2.2.1]heptan-2-yl)phenyl)pyrimidin-2-amine]",–
–,–,"CN(C)c1nc(-c2ccnc(Nc3ccc(N4C[C@@H]5C[C@H]4CN5C)nc3)n2)cs1 [compound 177, 4-(2-(dimethylamino)thiazol-4-yl)-N-(6-((1S,4S)-5-methyl-2,5-diazabicyclo[2.2.1]heptan-2-yl)pyridin-3-yl)pyrimidin-2-amine]","GI50 (inhibition of JAK2 activity, proliferation of Ba/F3 V617F cells, read-out: IC50 (the source's name)): > 20000 nM"
–,< 1000,"Cc1cc(Nc2nccc(-c3cncc(S(C)(=O)=O)c3)n2)ccc1N1C[C@@H]2C[C@H]1CN2C [compound 95, 4-(5-(methyl)sulfonylpyridin-3-yl)-N-(3-methyl-4-((1S,4S)-5-methyl-2,5-diazabicyclo[2.2.1]heptan-2-yl)phenyl)pyrimidin-2-amine]",–
< 1000,–,"Cc1cc(Nc2nccc(-c3cnc4c(c3)OC(C)(C)C(=O)N4)n2)ccc1N1C[C@@H]2CC[C@H]1C2 [compound 223, 4-(2,2-dimethyl-3-oxo-3,4-dihydro-2H-pyrido[3,2-b][1,4]oxazin-7-yl)-N-(3-methyl-4-((1S,4R)-2-azabicyclo[2.2.1]heptan-2-yl)phenyl)pyrimidin-2-amine]",–
–,< 1000,"Cc1cc(Nc2nccc(-c3cnc4c(c3)OC3(CCC3)C(=O)N4)n2)ccc1N1C[C@@H]2C[C@H]1CN2C [compound 31, 4-(3′-oxo-3,4′-dihydrospiro[cyclobutane-1,2′-pyrido[3,2-b][1,4]oxazine]-7-yl)-N-(3-methyl-4-((1S,4S)-5-methyl-2,5-diazabicyclo[2.2.1]heptan-2-yl)phenyl)pyrimidin-2-amine]",–
–,< 1000,"Cc1cc(-c2ccnc(Nc3ccc(N4C[C@@H]5C[C@H]4CN5C)c(F)c3)n2)cnc1N1CCOCC1 [compound 59, 4-(5-methyl-6-(morpholin-4-yl)pyridin-3-yl)-N-(3-fluoro-4-((1S,4S)-5-methyl-2,5-diazabicyclo[2.2.1]heptan-2-yl)phenyl)pyrimidin-2-amine]",–
< 1000,–,"Cc1cc(Nc2nccc(-c3ccc(N4CCOCC4)nc3)n2)ccc1N1CCN2CC[C@@H]1C2 [compound 276, 4-(6-(morpholin-4-yl)pyridin-3-yl)-N-(3-methyl-4-((R)-1,4-diazabicyclo[3.2.1]octan-4-yl)phenyl)pyrimidin-2-amine]",–
–,1000 to 10000,"CN1C[C@@H]2C[C@H]1CN2c1ccc(Nc2nccc(-c3ccc(NCCN4CCOCC4)nc3)n2)cc1 [compound 69, 4-(6-(2-(morpholin-4-yl)ethyl)aminopyridin-3-yl)-N-(4-((1S,4S)-5-methyl-2,5-diazabicyclo[2.2.1]heptan-2-yl)phenyl)pyrimidin-2-amine]",–
–,< 1000,"Cc1cc(Nc2nccc(-c3ccc(N4C[C@@H]5C[C@H]4CN5c4ccc(F)cc4)nc3)n2)ccc1N1CCN(C)CC1 [compound 13, 4-(6-((1S,4S)-5-(4-fluorophenyl)-2,5-diazabicyclo-[2.2.1]-heptan-2-yl)pyridin-3-yl)-N-(3-methyl-4-(4-methyl-piperazin-1-yl)phenyl)-pyrimidin-2-amine]",–
–,10000 to 20000,"Cc1cc(Nc2nccc(-c3ccc(-c4nnn[nH]4)nc3)n2)ccc1N1C[C@@H]2C[C@H]1CN2C [compound 115, 4-(6-(1H-tetrazol-5-yl)pyridin-3-yl)-N-(3-methyl-4((1S,4S)-5-methyl-2,5-diazabicyclo[2.2.1]heptan-2-yl)phenyl)pyrimidin-2-amine]",–
< 1000,–,"CN1C[C@@H]2C[C@H]1CN2c1ccc(Nc2nccc(-c3ccc4c(c3)OC(C)(C)C(=O)N4)n2)cc1C#N [compound 271, 4-(2,2-dimethyl-3-oxo-3,4-dihydro-2H-benzo[b][1,4]oxazin-7-yl)-N-(3-cyano-4-((1S,4S)-5-methyl-2,5-diazabicyclo[2.2.1]heptan-2-yl)phenyl)pyrimidin-2-amine]",–
< 1000,–,"Cc1cc(Nc2nccc(-c3ccc4c(c3)CCCC(=O)N4)n2)ccc1N1C[C@@H]2C[C@H]1CN2C [compound 242, 4-(2-oxo-2,3,4,5-tetrahydro-1H-benzo[b]azepin-7-yl)-N-(3-methyl-4-((1S,4S)-5-methyl-2,5-diazabicyclo[2.2.1]heptan-2-yl)phenyl)pyrimidin-2-amine]",–
< 1000,–,"Cc1cc(Nc2nccc(-c3ccc(OC4CCOCC4)nc3)n2)ccc1N1C[C@@H]2C[C@H]1CN2C [compound 261, 4-(6-(tetrahydropyran-4-yloxy)pyridin-3-yl)-N-(3-methyl-4-((1S,4S)-5-methyl-2,5-diazabicyclo[2.2.1]heptan-2-yl)phenyl)pyrimidin-2-amine]",–
< 1000,–,"Cc1cc(Nc2nccc(-c3ccc(N4CCOCC4)nc3)n2)ccc1N1C[C@@H]2C[C@H]1CN2CC(C)C [compound 205, 4-(6-(morpholin-4-yl)pyridin-3-yl)-N-(3-methyl-4-((1S,4S)-5-isobutyl-2,5-diazabicyclo[2.2.1]heptan-2-yl)phenyl)pyrimidin-2-amine]",–
–,1000 to 10000,"CN1C[C@@H]2C[C@H]1CN2c1ccc(Nc2nccc(-c3ccc(NS(C)(=O)=O)nc3)n2)cc1F [compound 153, 4-(6-(methylsulfonylamino)pyridin-3-yl)-N-(3-fluoro-4-((1S,4S)-5-methyl-2,5-diazabicyclo[2.2.1]heptan-2-yl)phenyl)pyrimidin-2-amine]",–
–,< 1000,"Cc1cc(Nc2nccc(-c3cnc4[nH]ccc4c3)n2)ccc1N1C[C@@H]2C[C@H]1CN2C [compound 22, 4-(1H-pyrrolo[2,3-b]pyridin-5-yl)-N-(3-methyl-4-((1S,4S)-5-methyl-2,5-diazabicyclo[2.2.1]heptan-2-yl)phenyl)pyrimidin-2-amine]",–
–,< 1000,"Cc1cc(Nc2nccc(-c3ccc(NC(=O)C(C)(C)C)cc3)n2)ccc1N1C[C@@H]2C[C@H]1CN2C [compound 129, 4-(4-(t-butylcarbonylamino)phenyl)-N-(3-methyl-4-((1S,4S)-5-methyl-2,5-diazabicyclo[2.2.1]heptan-2-yl)phenyl)pyrimidin-2-amine]",–
